From patent US20050209345A1, “Lymphatic drug delivery system” (priority 2001, published 2005)
Where two headings read alike, the source gives them in different places.

Assays:
[1] = conscious rats, cited from earlier work
[2] = rats; cited from earlier work
[3] = rats, soybean emulsion, 24 h post dosing; cited from earlier work
[4] = in vivo; cited from earlier work
[5] = rats, oral, cited from earlier work
[6] = in soybean oil; cited from earlier work
[7] = Thoracic lymph duct and portal vein cannulated greyhound dog study: lymphatic transport of halofantrine and triglyceride, systemic availability; details: fed dogs, IV 2 mg/kg, over 12 h, mean +/- sd, n = 3
Procedure: (§1) All surgical and experimental procedures were performed in accordance with the guidelines and approval of the local Institutional Animal Experimentation Ethics Committee. Studies were conducted in male greyhound dogs (28-35 kg), and their health status was verified by a veterinarian prior to the study. Prior to surgery, each dog was fed a small lipid meal to facilitate identification of the thoracic duct. […] Each dog received intravenous infusion of Lactated Ringer's solution (300 mL/h) during surgery, and a post-operative injection of antibiotic (cephazolin, 20 mg/kg) and analgesic (carprofen, 4 mg/kg).
(§2) The ventral abdomen was firstly clipped and prepared for aseptic surgery. A 5 cm long ventral midline laparotomy was performed to allow a loop of jejunum to be exteriorised. A 133 mm 16 gauge cannula was then inserted into a jejunal vein to the level of the portal vein. The cannula was stabilised in both the portal and jejunal veins with a ligature of 3/0 silk to the jejunal vein and a minimal volume extension tube, filled with heparinised saline, was then attached and externalised through a separate stab incision in the left flank and stabilised with sutures. The laparotomy wound was closed in anatomical layers with 3/0 polydioxinone sutures. The position of the cannula in the portal vein was confirmed by a portal venogram following a 10 mL injection of a contrast dye (Iohexol), and cannula patency was maintained by small volume flushing with heparinised saline (1 U/mL).
(§3) The left ventral neck area and cranial thorax was clipped and prepared for aseptic surgery. A curved incision was made over the left external jugular vein and the vein was then dissected from the surrounding tissues to the axillary vein. At the junction of the internal jugular and brachiocephalic veins, the thoracic duct ampulla was identified by its whitish appearance This was then ligated at the point of entrance into the brachiocephalic vein and all tributaries converging to the thoracic duct were ligated to ensure the return of lymph through the main lymphatic canal. […]

[8] = dog, in vivo, po
Procedure: as §1, §2, §3

SMILES: CCCCCCCCCCC(C)(C)C(=O)Nc1c(OC)cc(OC)cc1OC [Cl-976]
- total amount transported in lymph as percent of dose, lipid-based emulsion compared with suspension ([1]; over 14 h): 7 times
- absolute amount of drug transported lymphatically [1]: < 1%

SMILES: COC1(O[C@H]2CC[C@H]3[C@@H]4CC[C@H]5C[C@@H]6S[C@@H]6C[C@]5(C)[C@H]4CC[C@]23C)CCCC1 [mepitiostane]
- extent of lymphatic transport, polysorbate 80 micellar solution versus triglyceride lipid vehicle [2]: no significant differences

SMILES: Cc1ccc2oc(N[C@@H](CC3CCCCC3)c3ccccn3)nc2c1 [ontazolast]
- total amount of lymphatically transported ontazolast, increase versus aqueous based suspension [3]: ~50 fold

SMILES: CCCCCCCCCCCCCCCC(=O)OC/C=C(C)/C=C/C=C(C)/C=C/C1=C(C)CCCC1(C)C [retinyl palmitate]
- lymphatic transport, aqueous polysorbate 80 micellar solution compared with lipid solution [4]: two-fold increase

SMILES: CC(C)CCC[C@@H](C)[C@H]1CC[C@H]2[C@@H]3[C@@H](C)C[C@H]4N(C)C(=O)CC[C@]4(C)[C@H]3CC[C@]12C [MK-386]
- rank order of total amount transported into the mesenteric lymph by formulation ([5]; 6 h post-dosing): aqueous suspension>mixed lipid/surfactant system>soybean oil
- levels of radioactivity in the lymph compared with the portal blood ([5]; all three formulations): up to 80 fold
- lipid solubility [6]: > 80 mg/mL

SMILES: CCCCN(CCCC)CCC(O)c1cc2c(Cl)cc(Cl)cc2c2cc(C(F)(F)F)ccc12 (centres unmarked) [Hf, halofantrine]
- Cum Hf transport in lymph (% dose) [7]: 1.5 +/− 0.2 % dose

SMILES: CCCCN(CCCC)CCC(O)c1cc2c(Cl)cc(Cl)cc2c2cc(C(F)(F)F)ccc12 (centres unmarked) [Hf base]
- Cum Hf transport in lymph (% dose) [8]: 1.3 +/− 0.7 % dose
- Transport into syst circulation (% dose) [8]: 30.2 +/− 18.7 % dose
